Assay results taken from paper PMC12280919, “Arylsulfamates inhibit colonic Bacteroidota growth through a sulfatase-independent mechanism” (Proceedings of the National Academy of Sciences of the …, 2025).
Where a name gives a salt, the structure may show the parent alone. Each block holds one molecule with its values, some of them ahead of it.

Experiments:
PaAstA [1] = target: T1, PaAstA (Pseudomonas aeruginosa, UniProt P51691); test: 4-nitrophenolate release, A400; format: biochemical; settings: 1 mM substrate, pH 7.0, 5 mM CaCl2, 20-25 °C
T1 construct: gene atsA; S1_4 sulfatase
T1 sequence (P51691 2-536): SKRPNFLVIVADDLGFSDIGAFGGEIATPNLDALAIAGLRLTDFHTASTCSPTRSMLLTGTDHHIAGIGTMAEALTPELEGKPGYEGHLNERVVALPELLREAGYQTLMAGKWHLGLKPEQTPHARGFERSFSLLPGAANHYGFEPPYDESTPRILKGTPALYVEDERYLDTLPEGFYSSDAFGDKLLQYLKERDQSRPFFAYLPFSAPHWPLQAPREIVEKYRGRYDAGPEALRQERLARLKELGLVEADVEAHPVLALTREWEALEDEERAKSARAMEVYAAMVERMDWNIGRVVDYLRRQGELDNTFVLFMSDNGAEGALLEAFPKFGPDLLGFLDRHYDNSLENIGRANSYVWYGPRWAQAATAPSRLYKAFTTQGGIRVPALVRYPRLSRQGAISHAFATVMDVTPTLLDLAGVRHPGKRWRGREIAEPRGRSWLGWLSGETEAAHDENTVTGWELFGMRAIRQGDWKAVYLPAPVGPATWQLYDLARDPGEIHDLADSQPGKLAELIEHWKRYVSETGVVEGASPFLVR

BT1636^3S-Gal = target: T2, BT1636^3S-Gal (Bacteroides thetaiotaomicron, UniProt Q8A789, S77C); test: microfluidic mobility shift desulfation assay after overnight preincubation and dilution; format: biochemical; settings: 1 mM compound, only after preincubation; BODIPY-labelled sulfated substrate, 5 mM CaCl2, 28 °C; formylglycine form
T2 construct: gene BT_1636; recombinant in E. coli TUNER, cobalt IMAC
T2 sequence (Q8A789 23-509 S77C): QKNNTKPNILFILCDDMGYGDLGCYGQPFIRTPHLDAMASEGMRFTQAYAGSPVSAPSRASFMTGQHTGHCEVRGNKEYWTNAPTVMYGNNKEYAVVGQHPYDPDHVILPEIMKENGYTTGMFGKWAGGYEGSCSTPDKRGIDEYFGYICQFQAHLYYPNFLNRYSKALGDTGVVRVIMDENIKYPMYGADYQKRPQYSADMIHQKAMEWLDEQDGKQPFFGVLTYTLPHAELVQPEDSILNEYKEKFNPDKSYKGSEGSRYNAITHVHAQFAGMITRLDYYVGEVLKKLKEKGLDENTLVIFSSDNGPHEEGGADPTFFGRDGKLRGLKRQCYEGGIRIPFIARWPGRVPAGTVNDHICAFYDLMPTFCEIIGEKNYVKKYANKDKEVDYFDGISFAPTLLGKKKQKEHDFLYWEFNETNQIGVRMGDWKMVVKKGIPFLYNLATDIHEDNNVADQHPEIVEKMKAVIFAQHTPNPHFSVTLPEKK

PaAstA [2] = target: T1, PaAstA; test: 4-nitrophenyl sulfate hydrolysis, A400; also preincubation and jump dilution; format: biochemical; settings: 1 mM compound, 1 mM 4-nitrophenyl sulfate, pH 7.0, 5 mM CaCl2, 20-25 °C; irreversible, covalent
BT4322 = target: T3, BT4322 (Bacteroides thetaiotaomicron, UniProt Q89ZQ4); test: thermal shift assay (SYPRO Orange DSF); format: binding; settings: pH 7.0, 100 mM BTP, 150 mM NaCl, 5% DMSO
T3 construct: gene BT_4322; recombinant in E. coli
T3 sequence (Q89ZQ4 1-308): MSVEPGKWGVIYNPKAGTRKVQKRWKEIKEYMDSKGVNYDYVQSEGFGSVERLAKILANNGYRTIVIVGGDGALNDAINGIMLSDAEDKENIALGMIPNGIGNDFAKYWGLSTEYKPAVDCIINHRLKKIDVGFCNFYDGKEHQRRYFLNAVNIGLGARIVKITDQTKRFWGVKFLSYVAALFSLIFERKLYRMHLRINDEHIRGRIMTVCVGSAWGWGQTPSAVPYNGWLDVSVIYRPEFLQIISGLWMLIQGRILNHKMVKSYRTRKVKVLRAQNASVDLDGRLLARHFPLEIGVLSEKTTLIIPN

Compound: O=[N+]([O-])c1ccc(OS(=O)(=O)O)cc1 [4-nitrophenyl sulfate]
4-nitrophenolate release, A400 (PaAstA [1]): rapidly hydrolyzed by the family S1 steroid sulfatase PaAsta

Compound: O=S(=O)(F)c1ccccc1 [compound 23, aryl sulfonylfluoride 23]
% inhibition at 1 mM (BT1636^3S-Gal): > 50%

Compound: COc1cc2ccccc2cc1OS(N)(=O)=O [compound 17, arylsulfamate 17]
% inhibition at 1 mM (PaAstA [2]): all arylsulfamates were broadly equivalent in their ability to completely inhibit both enzymes

Compound: O=c1c2ccccc2[nH]c(=S)n1CCN1CCC(=C(c2ccc(F)cc2)c2ccc(F)cc2)CC1 [diacylglycerol kinase inhibitor II]
dTm (BT4322; stabilizing): DAGK-II caused a concentration-dependent stabilization

dTm (BT4322; stabilizing): The substrate ATP also stabilized BT4322
Compound: Nc1ncnc2c1ncn2[C@@H]1O[C@H](COP(=O)(O)OP(=O)(O)OP(=O)(O)O)[C@@H](O)[C@H]1O [ATP]

Compound: NS(=O)(=O)Oc1ccc(-c2ccccc2)cc1 [compound 2, 4-phenylphenyl sulfamate]
% inhibition at 1 mM (PaAstA [2]): all arylsulfamates were broadly equivalent in their ability to completely inhibit both enzymes

Compound: Cc1nc2sccn2c(=O)c1CCN1CCC(=C(c2ccccc2)c2ccc(F)cc2)CC1 [diacylglycerol kinase inhibitor I]
dTm (BT4322; destabilizing): The DAGK-I inhibitor also caused concentration-dependent destabilization
